Test results as given in patent US11370847B2, “Single domain antibodies directed against intracellular antigens” (Singh Biotechnology, LLC, priority 2014, dated 2022).
Several values for one entry are separate records, joined by “and”; a condition that tells them apart may be missing. Identical values can stand only once. Like-named read-outs stand apart in the source and are kept apart here.

Columns and labels:
[1] = tested on: MDA-MB-231 xenograft; conditions: for Individual Tumor Measurements: listed as anti-STAT3 bacterial VHH13
[2] = tested on: SIE-luc2P/HEK293 cells; test: BCA protein concentration of reporter cells; assay type: cell-based; conditions: highest concentration (55.8 μg/mL)
[3] = tested on: EBOv (Makon); conditions: HFF; EBOV (Makona); 48 hours
[4] = Group 3, 2 mg/kg IP BID×14, day 33 (7/6/15)
[5] = Group 3, 2 mg/kg IP BID×14, day 36 (7/9/15)
[6] = Group 3, 2 mg/kg IP BID×14, day 42 (7/15/15)
[7] = Group 4, 2 mg/kg IP QD×14, day 20 (6/23/15)
[8] = Group 4, 2 mg/kg IP QD×14, day 23 (6/26/15)
[9] = Group 4, 2 mg/kg IP QD×14, day 26 (6/29/15)
[10] = Group 4, 2 mg/kg IP QD×14, day 29 (7/2/15)
[11] = Group 4, 2 mg/kg IP QD×14, day 33 (7/6/15)
[12] = Group 4, 2 mg/kg IP QD×14, day 36 (7/9/15)
[13] = Group 4, 2 mg/kg IP QD×14, day 42 (7/15/15)

## anti-STAT3 VHH13: anti-STAT3 single-domain antibody, SEQ ID NO:3; bacterially produced, referred to as SBT-100
[1]; [4]
  % Inhibition Mean: 73.69%
  % Inhibition Median: 72.49%
  Tumor Mean Absolute: 58.27 mm^3
  Tumor Median Absolute: 56.29 mm^3
  Individual Tumor Measurements: 34.11 mm^3 and 110.72 mm^3 and 78.47 mm^3 and 9.78 mm^3
[1]; [5]
  % Inhibition Mean: 75.18%
  % Inhibition Median: 71.22%
  Tumor Mean Absolute: 59.21 mm^3
  Tumor Median Absolute: 64.51 mm^3
  Individual Tumor Measurements: 50.33 mm^3 and 89.11 mm^3 and 78.68 mm^3 and 18.71 mm^3
[1]; [6]
  % Inhibition Mean: 83.89%
  % Inhibition Median: 85.17%
  Tumor Mean Absolute: 41.15 mm^3
  Tumor Median Absolute: 35.89 mm^3
  Individual Tumor Measurements: 18.94 mm^3 and 73.89 mm^3 and 51.30 mm^3 and 20.48 mm^3
[1]; Group 3: 2 mg/kg bw IP BID×14
  growth delay: 9.52 days
  mean growth inhibition: 75.2
  mean tumor size (±S.E.) at termination (day 42): 41.15±13.21
  mean tumor size (±SE) at day 14 of dosing: 58.27±22.54
[1]; Group 3: 2 mg/kg bw IP BID×14, (tumor regression)
  % treatment/control: −54.4%
[1]; Group 3: 2 mg/kg bw IP BID×14, control 20.56 days
  tumor doubling time: 30.07 days
[1]; [7]
  % Inhibition Mean: −14.18%
  % Inhibition Median: −1.80%
  Tumor Mean Absolute: 105.60 mm^3
  Tumor Median Absolute: 100.88 mm^3
  Individual Tumor Measurements: 88.56 mm^3 and 78.73 mm^3 and 113.20 mm^3 and 141.91 mm^3
[1]; [8]
  % Inhibition Mean: 32.37%
  % Inhibition Median: 16.23%
  Tumor Mean Absolute: 93.99 mm^3
  Tumor Median Absolute: 96.82 mm^3
  Individual Tumor Measurements: 108.35 mm^3 and 51.51 mm^3 and 85.29 mm^3 and 130.82 mm^3
[1]; [9]
  % Inhibition Mean: 54.06%
  % Inhibition Median: 43.65%
  Tumor Mean Absolute: 79.20 mm^3
  Tumor Median Absolute: 78.40 mm^3
  Individual Tumor Measurements: 105.80 mm^3 and 54.20 mm^3 and 69.30 mm^3 and 87.49 mm^3
[1]; [10]
  % Inhibition Mean: 46.13%
  % Inhibition Median: 38.19%
  Tumor Mean Absolute: 105.54 mm^3
  Tumor Median Absolute: 103.05 mm^3
  Individual Tumor Measurements: 102.94 mm^3 and 70.39 mm^3 and 103.16 mm^3 and 145.68 mm^3
[1]; [11]
  % Inhibition Mean: 40.66%
  % Inhibition Median: 36.92%
  Tumor Mean Absolute: 131.44 mm^3
  Tumor Median Absolute: 129.05 mm^3
  Individual Tumor Measurements: 183.39 mm^3 and 84.29 mm^3 and 103.20 mm^3 and 154.89 mm^3
[1]; [12]
  % Inhibition Mean: 55.94%
  % Inhibition Median: 54.32%
  Tumor Mean Absolute: 105.10 mm^3
  Tumor Median Absolute: 102.39 mm^3
  Individual Tumor Measurements: 159.78 mm^3 and 55.83 mm^3 and 87.15 mm^3 and 117.63 mm^3
[1]; [13]
  % Inhibition Mean: 43.03%
  % Inhibition Median: 48.55%
  Tumor Mean Absolute: 145.51 mm^3
  Tumor Median Absolute: 124.47 mm^3
  Individual Tumor Measurements: 291.06 mm^3 and 42.03 mm^3 and 130.64 mm^3 and 118.31 mm^3
[1]; Group 4: 2 mg/kg bw IP QD×14
  growth delay: 6.61 days
  mean growth inhibition: 55.9
  mean tumor size (±S.E.) at termination (day 42): 145.51±52.32
  mean tumor size (±SE) at day 14 of dosing: 131.44±22.86
[1]; Group 4: 2 mg/kg bw IP QD×14, (tumor inhibition)
  % treatment/control: 10.28%
[1]; Group 4: 2 mg/kg bw IP QD×14, control 20.56 days
  tumor doubling time: 27.17 days
[1]; SBT-100 5 mg/kg bw i.p. BID×14
  mean tumor size (±S.E.) at termination (day 28): 91.72±33.17
  mean tumor size (±SE) at last day of dosing (Day 14): 83.81±22.65
[1]; SBT-100 5 mg/kg bw i.p. BID×14, (tumor inhibition)
  % treatment/control: 13.35%
[1]; SBT-100 5 mg/kg bw i.p. BID×14, control […] days
  tumor doubling time: 111.6 days
[1]; SBT-100 5 mg/kg bw i.p. BID×14, p=0.006
  mean tumor growth inhibition at the end of the study: 85.8%
[2]
  decrease in protein: approximately 2 fold
[3]
  EC50: 38.36 ug/m
  EC90: 66.43 µg/mL
